A short description of data set [1]: cell toxicity CC50. The data set is classed as cell-based. Conditions: human; Hep-G2 cells; mean of at least two experiments; read-out: Cell Cytotoxicity CC50.
The subject of data set [2] is RSV (RSV A2 ECACC, 0709161v). In words: RSV plaque reduction assay. The data set is classed as cell-based, respiratory syncytial virus. As to conditions: human respiratory syncytial virus, HepG2, read-out: RSV A2 Plaque EC50, RSV A2 in Hep-G2 cells; mean of at least two experiments unless noted (n = 1). How it is done: Compounds w ere subjected to RSV plaque reduction assays according to the following protocol.
Hep-G2 cells (ECACC, 85011430) were passaged in flasks and seeded in 24-well plates in DMEM containing antibiotics and supplemented with 10% FBS. During inoculation and subsequent incubation, cells were cultured in DMEM containing 2% FBS. 100 plaque forming unit/well of RSV (RSV A2 ECACC, 0709161v) was mixed with eight serial dilutions of compound. Subsequently, 100 μL of the virus/compound mixtures was added to confluent Hep-G2 cell monolayers. The cells and virus/compound mixtures were incubated at 37° C. in a humidified 5% CO2 incubator for 2 h prior to removal of the inoculum and addition of 1 mL of overlay (DMEM containing 2% FBS and 0.8% CMC) containing compound dilutions. The cells and were incubated at 37° C. in a humidified 5% CO2 incubator for 2 days.
Cells were washed with PBS before adding 75/25% v/v EtOH MeOH, for 3 min. Fixative was removed and plates were washed with PBS. A pre-titrated amount of the primary antibody was added in 200 μL PBS/2% milk powder, and plates incubated for 90 min at 37° C. The plates were washed 3 times with PBS/0.05% Tween20 before addition of rabbit anti-goat horse radish peroxidase in 200 μL PBS/2% milk powder, and incubated for 1 h at 37° C. Following three wash steps with PBS/0.05% Tween20, 200 μL ready-to-use TrueBlue was added and plates were incubated at rt for 10-15 min before washing with water. After removal of water, plates were air-dried in the dark.
Plates were scanned and analysed using the Immunospot S6 Macro analyser, which is equipped with BioSpot analysis software for counting immunostained plaques (virospots). Plaque counts were used to calculate % infection relative to the mean of the plaque count in the virus control wells for RSV. […] Unless otherwise noted, plaque EC50 and cell toxicity CC50 values are a mean of at least two experiments and figures are rounded to whole units.

Consider `C[C@@H]1CCn2nc(-c3ccc(S(C)(=O)=O)cc3F)c(C(=O)N[C@H]3N=C(c4ccccc4)c4ccccc4NC3=O)c2O1` [Example 141, (5R)-2-(2-Fluoro-4-methylsulfonylphenyl)-5-methyl-N-[(3S)-2-oxo-5-phenyl-1,3-dihydro-1,4-benzodiazepin-3-yl]-6,7-dihydro-5H-pyrazolo[5,1-b][1,3]oxazine-3-carboxamide], for which the CC50 in data set [1] is over 25000 nM. Also, the EC50 in data set [2] is 20 nM.

Regarding `C[C@@H]1CCn2nc(-c3cnn(C4COC4)c3)c(C(=O)N[C@H]3N=C(c4ccccc4)c4cccc(F)c4NC3=O)c2O1` [Example 116, (5R)-N-[(3S)-9-fluoro-2-oxo-5-phenyl-1,3-dihydro-1,4-benzodiazepin-3-yl]-5-methyl-2-[1-(oxetan-3-yl)pyrazol-4-yl]-6,7-dihydro-5H-pyrazolo[5,1-b][1,3]oxazine-3-carboxamide], the CC50 in data set [1] is over 25000 nM. For the same molecule, the EC50 in data set [2] turned out to be 127 nM.

Consider `O=C(N[C@H]1N=C(c2ccccc2)c2cccc(F)c2NC1=O)c1c(-c2ccncc2F)nn2c1OCCC2` [Example 80, N-[(3S)-9-fluoro-2-oxo-5-phenyl-1,3-dihydro-1,4-benzodiazepin-3-yl]-2-(3-fluoropyridin-4-yl)-6,7-dihydro-5H-pyrazolo[5,1-b][1,3]oxazine-3-carboxamide], for which the CC50 in data set [1] is over 25000 nM. Further, the EC50 in data set [2] was 64 nM.

`CCc1ccc(-c2nn3c(c2C(=O)N[C@H]2N=C(c4ccccc4)c4cccc(F)c4NC2=O)OCC2(CCC2)C3)cn1` [Example 177, 2-(6-Ethylpyridin-3-yl)-N-[(3S)-9-fluoro-2-oxo-5-phenyl-1,3-dihydro-1,4-benzodiazepin-3-yl]spiro[5,7-dihydropyrazolo[5,1-b][1,3]oxazine-6,1′-cyclobutane]-3-carboxamide]: in data set [1], the CC50 is over 25000 nM. The EC50 in data set [2] is 125 nM.

As for `O=C(N[C@H]1N=C(c2ccccc2)c2ccccc2NC1=O)c1c(-c2c(F)cccc2F)nn2c1OC(CO)CC2` (single isomer, unassigned) [Example 188-1, (5R*)-2-(2,6-Difluorophenyl)-5-(hydroxymethyl)-N-[(3S)-2-oxo-5-phenyl-1,3-dihydro-1,4-benzodiazepin-3-yl]-6,7-dihydro-5H-pyrazolo[5,1-b][1,3]oxazine-3-carboxamide], the CC50 in data set [1] was over 25000 nM. The EC50 in data set [2] stood at 141 nM.

For the molecule `C[C@@H]1CCn2nc(-c3ccc(F)nc3N3C[C@@H]4C[C@H]3CO4)c(C(=O)N[C@H]3N=C(c4ccccc4)c4cccc(F)c4NC3=O)c2O1` (single isomer, unassigned) [Example 89], the CC50 in data set [1] is over 25000 nM. In data set [2], the EC50 amounted to 122 nM.

`N#Cc1ccc(-c2nn3c(c2C(=O)N[C@H]2N=C(c4ccccc4)c4cccc(F)c4NC2=O)OCCC3)c(F)c1` [Example 138, 2-(4-Cyano-2-fluorophenyl)-N-[(3S)-9-fluoro-2-oxo-5-phenyl-1,3-dihydro-1,4-benzodiazepin-3-yl]-6,7-dihydro-5H-pyrazolo[5,1-b][1,3]oxazine-3-carboxamide]: the 50% cytotoxic concentration (CC50) in data set [1] is over 25000 nM. For the same molecule, the EC50 in data set [2] is 54 nM.

Take `O=C(N[C@H]1N=C(c2ccccc2)c2cccc(F)c2NC1=O)c1c(-c2ccccc2F)nn2c1OCC(CO)C2` (single isomer, unassigned) [Example 110-1, (6R*)-N-[(3S)-9-fluoro-2-oxo-5-phenyl-1,3-dihydro-1,4-benzodiazepin-3-yl]-2-(2-fluorophenyl)-6-(hydroxymethyl)-6,7-dihydro-5H-pyrazolo[5,1-b][1,3]oxazine-3-carboxamide]: the CC50 in data set [1] is over 25000 nM. For the same molecule, in data set [2], the EC50 was determined as 42 nM.

Regarding `C[C@@H]1CCn2nc(-c3ccccc3F)c(C(=O)N[C@H]3N=C(c4ccccc4)c4ccccc4NC3=O)c2O1` [Example 24, (5R)-2-(2-Fluorophenyl)-5-methyl-N-[(3S)-2-oxo-5-phenyl-1,3-dihydro-1,4-benzodiazepin-3-yl]-6,7-dihydro-5H-pyrazolo[5,1-b][1,3]oxazine-3-carboxamide], the CC50 in data set [1] is over 25000 nM. Further, the EC50 in data set [2] is 77 nM.

For the molecule `CN(C)Cc1ccc(-c2nn3c(c2C(=O)N[C@H]2N=C(c4ccccc4)c4cccc(F)c4NC2=O)OCCC3)c(F)c1` [Example 100], the CC50 in data set [1] is over 25000 nM. Also, the EC50 in data set [2] was found to be 75 nM.

With `CC(O)Cc1ccc(-c2nn3c(c2C(=O)N[C@H]2N=C(c4ccccc4)c4ccccc4NC2=O)O[C@H](C)CC3)cn1` (stereo partly drawn) [Example 50, (5R)-2-[6-(2-Hydroxypropyl)pyridin-3-yl]-5-methyl-N-[(3S)-2-oxo-5-phenyl-1,3-dihydro-1,4-benzodiazepin-3-yl]-6,7-dihydro-5H-pyrazolo[5,1-b][1,3]oxazine-3-carboxamide], in data set [1], the CC50 is over 25000 nM. In data set [2], the 50% effective concentration (EC50) was 429 nM.

For `Cc1ccc(-c2nn3c(c2C(=O)N[C@H]2N=C(c4ccccc4)c4cccc(F)c4NC2=O)O[C@H](C)CC3)c(C)n1` [Example 58, (5R)-2-(2,6-Dimethyl-3-pyridyl)-N-[(3S)-9-fluoro-2-oxo-5-phenyl-1,3-dihydro-1,4-benzodiazepin-3-yl]-5-methyl-6,7-dihydro-5H-pyrazolo[5,1-b][1,3]oxazine-3-carboxamide], the CC50 in data set [1] is over 25000 nM. Further, in data set [2], the EC50 worked out at 188 nM.

As to `O=C(N[C@H]1N=C(c2ccccc2)c2ccccc2NC1=O)c1nn2c(c1-c1ccc(NC3CC3)nc1F)OCCC2` [Example 38, 3-[6-(Cyclopropylamino)-2-fluoropyridin-3-yl]-N-[(3S)-2-oxo-5-phenyl-1,3-dihydro-1,4-benzodiazepin-3-yl]-6,7-dihydro-5H-pyrazolo[5,1-b][1,3]oxazine-2-carboxamide], the CC50 in data set [1] is over 25000 nM. For the same molecule, in data set [2], the EC50 was determined as 189 nM.

`O=C(N[C@H]1N=C(c2ccccc2)c2cccc(F)c2NC1=O)c1c(-c2ccc(F)cc2F)nn2c1S(=O)(=O)CCC2` [Example 32, 2-(2,4-Difluorophenyl)-N-[(3S)-9-fluoro-2-oxo-5-phenyl-2,3-dihydro-1H-1,4-benzodiazepin-3-yl]-4,4-dioxo-5H,6H,7H-4λ^6-pyrazolo[3,2-b][1,3]thiazine-3-carboxamide]: the CC50 in data set [1] was over 25000 nM. Moreover, the EC50 in data set [2] turned out to be 411 nM.

As to `CC(C)c1ccc(-c2nn3c(c2C(=O)N[C@H]2N=C(c4ccccc4)c4cccc(F)c4NC2=O)O[C@H](C)CC3)cn1` [Example 70, (5R)-5-Methyl-2-(6-propan-2-ylpyridin-3-yl)-N-[(3S)-9-fluoro-2-oxo-5-phenyl-1,3-dihydro-1,4-benzodiazepin-3-yl]-6,7-dihydro-5H-pyrazolo[5,1-b][1,3]oxazine-3-carboxamide], the CC50 in data set [1] was over 25000 nM. Besides, the EC50 in data set [2] was determined as 50 nM.

For the molecule `CC1(C)CCn2nc(-c3ccccc3F)c(C(=O)N[C@H]3N=C(c4ccccc4)c4cccc(F)c4NC3=O)c2O1` [Example 5, N-[(3S)-9-fluoro-2-oxo-5-phenyl-2,3-dihydro-1H-1,4-benzodiazepin-3-yl]-2-(2-fluorophenyl)-5,5-dim ethyl-5H,6H,7H-pyrazolo[3,2-b][1,3]oxazine-3 carboxamide], the CC50 in data set [1] is over 25000 nM. The EC50 in data set [2] came to 54 nM.

For the molecule `O=C(N[C@H]1N=C(c2ccccc2)c2cccc(F)c2NC1=O)c1c(-c2ccccc2F)nn2c1OC(CO)CC2` (single isomer, unassigned) [Example 190-1, (5R*)-N-[(3S)-9-Fluoro-2-oxo-5-phenyl-1,3-dihydro-1,4-benzodiazepin-3-yl]-2-(2-fluorophenyl)-5-(hydroxymethyl)-6,7-dihydro-5H-pyrazolo[5,1-b][1,3]oxazine-3-carboxamide], the CC50 in data set [1] was over 25000 nM. Moreover, the EC50 in data set [2] was 98 nM.

Consider `C[C@@H]1CCn2nc(-c3ccc4c(cnn4C)c3)c(C(=O)N[C@H]3N=C(c4ccccc4)c4cccc(F)c4NC3=O)c2O1` [Example 83, (5R)-5-Methyl-2-(1-methylindazol-5-yl)-N-[(3S)-9-fluoro-2-oxo-5-phenyl-1,3-dihydro-1,4-benzodiazepin-3-yl]-6,7-dihydro-5H-pyrazolo[5,1-b][1,3]oxazine-3-carboxamide], for which the CC50 in data set [1] is over 25000 nM. Besides, in data set [2], the EC50 worked out at 115 nM.

Take `C[C@@H]1CCn2nc(-c3ccc(N4CCOCC4)nc3)c(C(=O)N[C@H]3N=C(c4ccccc4)c4ccccc4NC3=O)c2O1` [Example 55, (5R)-5-Methyl-2-(6-morpholino-3-pyridyl)-N-[(3S)-2-oxo-5-phenyl-1,3-dihydro-1,4-benzodiazepin-3-yl]-6,7-dihydro-5H-pyrazolo[5,1-b][1,3]oxazine-3-carboxamide]: the CC50 in data set [1] was over 25000 nM. In addition, the EC50 in data set [2] was determined as 246 nM.

A word on the CC50: it is the concentration at which the toxic effect on the cells reaches its halfway point. The term EC50 denotes the concentration giving half of the maximal effect.

Source of the values: patent US12678446B2 (PFIZER INC., priority 2020, dated 2026).
